Read-outs that look alike come from different tables or passages of the source.
How the values were obtained:
[1] = Basic solubility at 25° C. in ethanol, PEG 400, propylene glycol (PG) and buffer solution; solubility ratio non-aqueous solvent / buffer solution; settings: for Solubility, Buffer solution: phosphate buffer pH 7.0
Method: In this regard, the buffer solution had the following composition: • 0.2% sodium hydrogen phosphate hydrate • 0.3% sodium dihydrogen phosphate hydrate • sodium hydroxide and hydrochloric acid (suitable amount was added to adjust the pH to 7.0; however, pH was adjusted to 7.4 for cabozantinib and telmisartan).
However, the following composition was used for rebamipide instead: • 0.05% sodium hydrogen phosphate hydrate • 0.45% sodium dihydrogen phosphate hydrate • sodium hydroxide and hydrochloric acid (suitable amount was added to adjust the pH to 6.0).
Each compound was measured in the same manner described above. In the Table, the molecular weight and Log P values are reference values (or values calculated from reference values).

[2] = Method: Fujifilm Wako Pure Chemical
The poorly soluble compound content in the recovered filtrate was measured by liquid chromatography specified below (Shimadzu (Kyoto), high performance liquid chromatograph Prominence).
As the standard product of triamcinolone acetonide, a reagent from the Pharmaceutical and Medical Device Regulatory Science Society of Japan (Japan) was used. • 50 μL of sample solution and standard solution was measured by liquid chromatography under the following conditions.
Column temperature: constant temperature of about 40° C. Mobile phase A: 0.1% trifluoroacetic acid/10% acetonitrile solution Mobile phase B: 0.1% trifluoroacetic acid/90% acetonitrile solution Delivery of mobile phase: the ratio of mixture of mobile phase A and mobile phase B was changed as follows to control the linear concentration gradient.
Detergent: 50% acetonitrile solution Flow rate: 1.0 mL/min Temperature within autosampler: 5° C.
The following conditions were tested as additives to a poorly soluble compound
wherein SA+B=solubility of a poorly soluble compound in a composition comprising poloxamer 407 and PEG 4000 SB=solubility of a poorly soluble compound in a composition comprising PEG 4000, but not poloxamer 407 SA=solubility of a poorly soluble compound in a composition comprising poloxamer 407, but not PEG 4000 S0=solubility of a poorly soluble compound in a composition that comprises neither poloxamer 407 nor PEG 4000.
The solubility in a composition of PEG and poloxamer was measured in the same manner described above for additional compounds.
For cabozantinib and telmisartan, the pH of the aqueous solution with the base composition described above was changed to 7.4. For rebamipide, the aqueous solution with the base composition was as follow. • 0.05% sodium hydrogen phosphate hydrate • 0.45% sodium dihydrogen phosphate hydrate • sodium hydroxide and hydrochloric acid (suitable amount was added to adjust the pH to 6.0)
Additional compounds were measured in the same manner described above.
Cabozantinib and telmisartan were tested with a solution adjusted to a pH of 7.4. Rebamipide was tested with a solution adjusted to a pH of 6.0. Other compounds were tested with a solution adjusted to a pH of 7.0.

[3] = Stability test: change in pH of poloxamer and/or polyethylene glycol solutions stored at 60° C. for four weeks; settings: for concentration of additive able to stabilize PEG 4000 / concentration of additive able to stabilize poloxamer 407 / stabilization of poloxamer 407 or PEG 4000 by the additive alone: pH change
Method: An additional component was added to an aqueous solution comprising poloxamer and/or polyethylene glycol, and the change in the viscosity and pH was measured over time under harsh conditions of 60° C. The following were used as the poloxamer, polyethylene glycol, and buffer. • Poloxamer 407 (Kolliphor P 407, BASF, Germany) • PEG 4000 (Macrogol 4000, NOF, Tokyo) • Buffer: 0.9% boric acid, 0.1% borax
The pH was adjusted with hydrochloric acid or sodium hydroxide. […] A polyethylene eye drop bottle was filled with 5 mL of each filtrate and stored in a 60° C. thermostatic vessel. The pH and viscosity of the test solutions as of preparation and at four weeks after storage were measured. The viscosity was measured using a rotational viscometer (Toki Sangyo (Osaka) Model TVE-25 viscometer type L, 25° C., 100 rpm). The pH as of the preparation was measured in the test solution before transferring to an eye drop bottle for storage.

[4] = 25° C., buffer pH 7.0 (pH 7.4 for cabozantinib and telmisartan; pH 6.0 for rebamipide)

SMILES | Solubility ratio of solvent with respect to buffer solution Ethanol/buffer solution [1, 4] | Solubility ratio of solvent with respect to buffer solution PEG400/buffer solution [1, 4] | Solubility ratio of solvent with respect to buffer solution PG/buffer solution [1, 4] | Solubility scale factor at 5° C. 30% PEG 4000/10% poloxamer 407 [2] | Solubility scale factor at 15° C. 30% PEG 4000/10% poloxamer 407 [2] | also measured
Brc1cccc2c1oc1ccccc12 [4-bromadibenzofuran] | 426955.49 | 1693721.20 | 106519.51 | 793.72 | 1.61 | –
Brc1cccc2c1oc1ccccc12 [4-bromodibenzofuran] | – | – | – | – | – | state of the test composition [2]: converted into gel
Cc1ccc(-c2cc(C(F)(F)F)nn2-c2ccc(S(N)(=O)=O)cc2)cc1 [Cel ? coxib] | 80774.38 | 371931.96 | 28507.07 | 686.99 | 183.33 | –
Cc1ccc(-c2cc(C(F)(F)F)nn2-c2ccc(S(N)(=O)=O)cc2)cc1 [Celecoxib] | – | – | – | – | – | Solubility, Ethanol ([1]; 25° C.): 10.24%
CC1(C)O[C@@H]2C[C@H]3[C@@H]4CCC5=CC(=O)C=C[C@]5(C)[C@H]4[C@@H](O)C[C@]3(C)[C@]2(C(=O)CO)O1 [Desonide] | 270.67 | 143.78 | 174.69 | 7.59 | 6.73 | Solubility, PEG400 ([1]; 25° C.): 1.031%; Solubility, PG (propylene glycol) ([1]; 25° C.): 1.253%; Solubility, Buffer solution ([1]; 25° C.): 0.007171%
O=C(O)CN(CCN(CC(=O)O)CC(=O)O)CC(=O)O [EDTA, ethylenediaminetetraacetic acid] | – | – | – | – | – | stabilization effect on low molecular weight PEG 400 ([3]; 0.1% additive): exhibited a stabilization effect; amount of PEG 4000 that the additive was able to stabilize ([3]; 0.1% additive, four weeks at 60° C.): up to 20%; concentration of additive able to stabilize PEG 4000 ([3]; four weeks at 60° C.): ≥ 0.1%; concentration of additive able to stabilize poloxamer 407 ([3]; four weeks at 60° C.): 0.01%
O=C1Nc2ccc(Cl)cc2[C@@](C#CC2CC2)(C(F)(F)F)O1 [Efavir ? nt] | 101607.44 | 96901.18 | 66368.13 | 14.23 | 1.97 | –
COC(=O)Nc1nc2cc(C(=O)c3ccc(F)cc3)ccc2[nH]1 [Flubendazole] | 745.67 | 5882.38 | 1401.17 | 24.46 | 12.41 | Solubility, Ethanol [1]: 0.007308%
COC1=CC(=O)C[C@@H](C)[C@]12Oc1c(Cl)c(OC)cc(OC)c1C2=O [Griseofulvin] | 309.31 | 1745.29 | 200.23 | 15.19 | 14.31 | Solubility, Ethanol ([1]; 25° C.): 0.2423%; Solubility, PEG400 ([1]; 25° C.): 1.367%; Solubility, PG (propylene glycol) ([1]; 25° C.): 0.1569%; Solubility, Buffer solution ([1]; 25° C.): 0.0007834%
CCC(C)n1ncn(-c2ccc(N3CCN(c4ccc(OCC5COC(Cn6cncn6)(c6ccc(Cl)cc6Cl)O5)cc4)CC3)cc2)c1=O (centres unmarked) [Itraconazole] | – | – | – | – | – | Solubility, Buffer solution ([1]; 25° C.): below the detection limit
OC[C@@H](O)[C@@H](O)[C@H](O)[C@H](O)CO [Mannitol] | – | – | – | – | – | stabilization of poloxamer 407 or PEG 4000 by the additive alone ([3]; four weeks at 60° C.): could not stabilize poloxamer 407 or PEG 4000
Cc1cn(-c2cc(NC(=O)c3ccc(C)c(Nc4nccc(-c5cccnc5)n4)c3)cc(C(F)(F)F)c2)cn1 [Nilotinib] | – | – | – | 144.99 | 31.62 | Solubility ratio of solvent with respect to buffer solution Ethanol/buffer solution [1]: 1623663.73; Solubility ratio of solvent with respect to buffer solution PEG400/buffer solution [1]: 7100339.79; Solubility ratio of solvent with respect to buffer solution PG/buffer solution [1]: 1437221.83
CNC(=O)c1cc(Oc2ccc(NC(=O)Nc3ccc(Cl)c(C(F)(F)F)c3)c(F)c2)ccn1 [Regorafenib] | 2004388.60 | 7691626.26 | 1186517.97 | 182.78 | 114.87 | Solubility, Buffer solution ([1]; 25° C.): 0.0000004174%
C=C(C)[C@H]1Cc2c(ccc3c2O[C@@H]2COc4cc(OC)c(OC)cc4[C@@H]2C3=O)O1 [Rotenone] | 30294.14 | 368226.98 | 13159.33 | – | – | Solubility, PEG400 ([1]; 25° C.): 3.314%; Solubility, PG (propylene glycol) ([1]; 25° C.): 0.1184%
O=S([O-])([O-])=S.[Na+].[Na+] [Sodium thiosulfate] | – | – | – | – | – | concentration of additive able to stabilize PEG 4000 ([3]; four weeks at 60° C.): 0.01%; concentration of additive able to stabilize poloxamer 407 ([3]; four weeks at 60° C.): 0.03%
CNC(=O)c1cc(Oc2ccc(NC(=O)Nc3ccc(Cl)c(C(F)(F)F)c3)cc2)ccn1 [Soraf ? nib] | 4781694.68 | 7210696.23 | 4473505.75 | 2355.97 | 450.47 | –
CC1(C)O[C@@H]2C[C@H]3[C@@H]4CCC5=CC(=O)C=C[C@]5(C)[C@@]4(F)[C@@H](O)C[C@]3(C)[C@]2(C(=O)CO)O1 [Triamsinolone acetonide] | 1043.62 | 876.48 | 680.05 | 7.32 | 7.52 | –
C[C@@H]1C[C@H]2[C@@H]3CCC4=CC(=O)C=C[C@]4(C)[C@@]3(F)[C@@H](O)C[C@]2(C)[C@@]1(O)C(=O)CO [dexamethasone] | – | – | – | 7.45 | 7.10 | Solubility, Buffer solution ([1]; 25° C.): 0.008221%
O=S([O-])S(=O)(=O)[O-].[Na+].[Na+] [sodium pyrosulfite] | – | – | – | – | – | stabilization of poloxamer 407 or PEG 4000 by the additive alone ([3]; four weeks at 60° C.): could not stabilize poloxamer 407 or PEG 4000
O=S([O-])[O-].[Na+].[Na+] [sodium sulfite] | – | – | – | – | – | stabilization of poloxamer 407 or PEG 4000 by the additive alone ([3]; four weeks at 60° C.): could not stabilize poloxamer 407 or PEG 4000
CC1(C)O[C@@H]2C[C@H]3[C@@H]4CCC5=CC(=O)C=C[C@]5(C)[C@@]4(F)[C@@H](O)C[C@]3(C)[C@]2(C(=O)CO)O1 [triamcinolone acetonide] | – | – | – | – | – | Solubility, Buffer solution ([1]; 25° C.): 0.001426%
